Results as given in patent publication US7875629B2, “Quinolinone compounds as 5-HT4 receptor agonists” (Theravance, Inc., priority 2005, dated 2011).

How the values were obtained:
[1] = target: T1, hERG cardiac potassium channel (Homo sapiens, UniProt Q12809); test: in vitro; assay type: cell-based; conditions: pH 7.4
T1 construct: host or cells: CHO-K1 cells stably transfected with HERG cDNA
Protocol: In Vitro Voltage Clamp Assay of Inhibition of Potassium Ion Current in Whole Cells Expressing the hERG Cardiac Potassium Channel
CHO-K^1 cells stably transfected with HERG cDNA were obtained from Gail Robertson at the University of Wisconsin. Cells were held in cryogenic storage until needed. Cells were expanded and passaged in Dulbecco's Modified Eagles Medium/F12 supplemented with 10% fetal bovine serum and 200 μg/mL geneticin. Cells were seeded onto poly-D-lysine (100 μg/mL) coated glass coverslips, in 35 mm^2 dishes (containing 2 mL medium) at a density that enabled isolated cells to be selected for whole cell voltage-clamp studies. The dishes were maintained in a humidified, 5% CO2 environment at 37° C.
Extracellular solution was prepared at least every 7 days and stored at 4° C. when not in use. […]
The coverslips on which the cells were seeded were transferred to a recording chamber and perfused continuously. […] Peak current amplitudes during the repolarization phase were determined using pClamp software. […]
Peak current amplitudes during the repolarization phase were determined using pCLAMP software. […] The normalized current means and standard errors for each condition were calculated and plotted versus the time course of the experiment. […]

[2] = in vivo; conditions: male, Sprague-Dawley, rat
Protocol: Pharmacokinetic Study in the Rat
Male Sprague-Dawley rats (CD strain, Charles River Laboratories, Wilmington, Mass.) were dosed with test compounds via intravenous administration (IV) at a dose of 2.5 mg/kg or by oral gavage (PO) at a dose of 5 mg/kg. The dosing volume was 1 mL/kg for IV and 2 mL/kg for PO administration. Serial blood samples were collected from animals pre-dose, and at 2 (IV only), 5, 15, and 30 min, and at 1, 2, 4, 8, and 24 hours post-dose.
Standard pharmacokinetic parameters were assessed by non-compartmental analysis (Model 201 for IV and Model 200 for PO) using WinNonlin (Version 4.0.1, Pharsight, Mountain View, Calif.). The maximum in the curve of test compound concentration in blood plasma vs. time is denoted Cmax. The area under the concentration vs. time curve from the time of dosing to the last measurable concentration (AUC(0-t)) was calculated by the linear trapezoidal rule. Oral bioavailability (F(%)), i.e. the dose-normalized ratio of AUC(0-t) for PO administration to AUC(0-t) for IV administration, was calculated as: F(%)=AUCPO/AUCIV×DoseIV/DosePO×100%

T1 sequence (Q12809 whole entry): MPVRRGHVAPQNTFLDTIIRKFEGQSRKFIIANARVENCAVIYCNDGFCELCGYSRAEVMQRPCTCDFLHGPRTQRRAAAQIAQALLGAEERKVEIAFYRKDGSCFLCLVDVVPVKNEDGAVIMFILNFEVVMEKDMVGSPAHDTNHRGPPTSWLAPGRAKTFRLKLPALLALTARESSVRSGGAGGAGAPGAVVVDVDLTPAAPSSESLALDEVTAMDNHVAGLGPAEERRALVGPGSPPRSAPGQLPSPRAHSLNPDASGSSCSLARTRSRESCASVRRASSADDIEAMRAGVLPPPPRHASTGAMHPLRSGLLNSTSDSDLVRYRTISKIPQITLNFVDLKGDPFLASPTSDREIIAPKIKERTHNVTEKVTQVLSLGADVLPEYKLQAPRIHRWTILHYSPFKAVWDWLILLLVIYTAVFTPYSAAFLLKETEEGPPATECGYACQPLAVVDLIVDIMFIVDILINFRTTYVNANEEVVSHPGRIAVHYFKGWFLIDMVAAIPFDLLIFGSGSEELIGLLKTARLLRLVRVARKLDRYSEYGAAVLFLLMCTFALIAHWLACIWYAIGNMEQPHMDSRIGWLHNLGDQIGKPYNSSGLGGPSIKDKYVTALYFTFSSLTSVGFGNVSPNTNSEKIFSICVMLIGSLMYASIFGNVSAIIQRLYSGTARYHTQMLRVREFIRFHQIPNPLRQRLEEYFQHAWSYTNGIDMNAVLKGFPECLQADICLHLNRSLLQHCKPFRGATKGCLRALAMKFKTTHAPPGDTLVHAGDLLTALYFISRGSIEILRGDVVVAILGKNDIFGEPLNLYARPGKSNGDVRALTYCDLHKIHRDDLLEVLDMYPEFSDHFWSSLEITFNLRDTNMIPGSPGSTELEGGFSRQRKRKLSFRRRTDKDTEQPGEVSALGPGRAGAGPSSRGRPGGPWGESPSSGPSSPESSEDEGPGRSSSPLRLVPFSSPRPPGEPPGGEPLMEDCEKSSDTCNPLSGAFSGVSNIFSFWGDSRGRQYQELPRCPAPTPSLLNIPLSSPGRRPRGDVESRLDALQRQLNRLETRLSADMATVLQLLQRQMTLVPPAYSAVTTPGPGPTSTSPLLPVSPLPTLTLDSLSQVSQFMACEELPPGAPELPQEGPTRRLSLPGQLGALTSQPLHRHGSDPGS

SMILES: CC(C)n1c(=O)c(C(=O)NC2CC3CCC(C2)N3CCCS(=O)(=O)N2CCN(C)CC2)cc2ccccc21 [Example 17, 1-isopropyl-2-oxo-1,2-dihydroquinoline-3-carboxylic acid {(1S,3R,5R)-8-[3-(4-methylpiperazine-1-sulfonyl)propyl]-8-azabicyclo[3.2.1]oct-3-yl}amide]
- inhibition at 5 min, 3 µM [1]: < 15%
- bioavailability [2]: ~20%
- AUC(0-t) ([2]; po, 5 mg/kg): 450 ng·h/mL
- Cmax ([2]; po, 5 mg/kg): 60 ng/mL
